# ChEMBL document CHEMBL1201862, “PubChem BioAssay data set” (2004)
# Activity calls are given as the source filed them.
# Tests used:
# HEK293 [1] = test: PMA/Ionomycin induced NF-kB luciferase assay in 293- NF-kB-Luc stable cells. [Related pubchem assays: 1299, 1270, 1295, 1375, 1287, 1281, 1293, 1291, 1289, 1280, 465, 1364, 1282, 1372, 1365, 1370, 1367, 1366, 1269, 1373, 1292, 1290, 1302, 1371, 1283, 1271, 1294, 1374, 1368, 1369 ]; assay type: functional, cell-based; settings: Homo sapiens
# [2] = target: Luciferin 4-monooxygenase (Photinus pyralis, UniProt P08659); test: In vitro luciferase assay using purified luciferase. [Related pubchem assays: 1299, 1270, 1295, 1375, 1287, 1281, 1293, 1291, 1289, 1280, 465, 1364, 1282, 1372, 1365, 1370, 1367, 1366, 1266, 1373, 1292, 1290, 1302, 1371, 1283, 1271, 1294, 1374, 1368, 1369 ]
# Luciferin 4-monooxygenase, sequence (P08659 whole entry): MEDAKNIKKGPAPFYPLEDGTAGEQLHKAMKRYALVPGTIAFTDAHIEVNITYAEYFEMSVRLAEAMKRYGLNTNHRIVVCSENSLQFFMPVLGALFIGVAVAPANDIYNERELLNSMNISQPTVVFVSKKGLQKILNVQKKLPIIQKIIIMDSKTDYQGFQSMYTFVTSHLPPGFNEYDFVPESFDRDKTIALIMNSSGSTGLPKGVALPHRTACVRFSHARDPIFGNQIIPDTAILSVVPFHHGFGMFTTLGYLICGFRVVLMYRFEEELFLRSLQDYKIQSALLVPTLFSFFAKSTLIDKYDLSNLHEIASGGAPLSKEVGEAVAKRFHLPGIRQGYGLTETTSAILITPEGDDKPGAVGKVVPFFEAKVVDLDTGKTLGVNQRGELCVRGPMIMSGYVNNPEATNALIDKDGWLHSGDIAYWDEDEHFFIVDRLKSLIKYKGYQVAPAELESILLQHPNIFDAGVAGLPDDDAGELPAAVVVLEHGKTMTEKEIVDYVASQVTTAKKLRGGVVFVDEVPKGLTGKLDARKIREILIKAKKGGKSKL
# HEK293 [3] = test: PMA/Ionomycin-induced IL-8 production in HEK293- NF-kB-Luc stable cells. [Related pubchem assays: 1299, 1295, 1375, 1287, 1281, 1293, 1291, 1289, 1280, 465, 1364, 1282, 1372, 1365, 1367, 1366, 1266, 1269, 1373, 1292, 1290, 1302, 1371, 1283, 1271, 1294, 1374, 1368, 1369 ]; assay type: functional, cell-based; settings: Homo sapiens
# HEK293 [4] = test: Cytotoxicity assay in HEK293 cells. [Related pubchem assays (depositor defined):AID1266, AID1269, AID1270, AID1271, AID1280, AID1281, AID1282, AID1283, AID1287, AID1289, AID1290, AID1291, AID1292, AID1293, AID1294, AID1295, AID1299, AID1302, AID1364, AID1365, AID1366, AID1367, AID1369, AID1370, AID1371, AID1372, AID1373, AID1374, AID1375, AID1384 …; assay type: functional, cell-based; settings: Homo sapiens
# HEK293 [5] = test: TNF Induced NF-kB Luciferase in 293-NF-kB-Luc Stable Cells. [Related pubchem assays: 1266, 1299, 1269, 1373, 1292, 1290, 1302, 1371, 1283, 1270, 1295, 1271, 1375, 1294, 1374, 1281, 1293, 1291, 1289, 1280, 465, 1368, 1364, 1282, 1372, 1365, 1369, 1370, 1367, 1366 ]; assay type: functional, cell-based; settings: Homo sapiens
# [6] = target: T1, Eukaryotic translation initiation factor 2-alpha kinase 3 (Homo sapiens, UniProt Q9NZJ5); test: Dose response cell-based high-throughput screening assay to measure PERK inhibition. [Related pubchem assays: 1416 ]; assay type: functional
# T1 sequence (Q9NZJ5 whole entry): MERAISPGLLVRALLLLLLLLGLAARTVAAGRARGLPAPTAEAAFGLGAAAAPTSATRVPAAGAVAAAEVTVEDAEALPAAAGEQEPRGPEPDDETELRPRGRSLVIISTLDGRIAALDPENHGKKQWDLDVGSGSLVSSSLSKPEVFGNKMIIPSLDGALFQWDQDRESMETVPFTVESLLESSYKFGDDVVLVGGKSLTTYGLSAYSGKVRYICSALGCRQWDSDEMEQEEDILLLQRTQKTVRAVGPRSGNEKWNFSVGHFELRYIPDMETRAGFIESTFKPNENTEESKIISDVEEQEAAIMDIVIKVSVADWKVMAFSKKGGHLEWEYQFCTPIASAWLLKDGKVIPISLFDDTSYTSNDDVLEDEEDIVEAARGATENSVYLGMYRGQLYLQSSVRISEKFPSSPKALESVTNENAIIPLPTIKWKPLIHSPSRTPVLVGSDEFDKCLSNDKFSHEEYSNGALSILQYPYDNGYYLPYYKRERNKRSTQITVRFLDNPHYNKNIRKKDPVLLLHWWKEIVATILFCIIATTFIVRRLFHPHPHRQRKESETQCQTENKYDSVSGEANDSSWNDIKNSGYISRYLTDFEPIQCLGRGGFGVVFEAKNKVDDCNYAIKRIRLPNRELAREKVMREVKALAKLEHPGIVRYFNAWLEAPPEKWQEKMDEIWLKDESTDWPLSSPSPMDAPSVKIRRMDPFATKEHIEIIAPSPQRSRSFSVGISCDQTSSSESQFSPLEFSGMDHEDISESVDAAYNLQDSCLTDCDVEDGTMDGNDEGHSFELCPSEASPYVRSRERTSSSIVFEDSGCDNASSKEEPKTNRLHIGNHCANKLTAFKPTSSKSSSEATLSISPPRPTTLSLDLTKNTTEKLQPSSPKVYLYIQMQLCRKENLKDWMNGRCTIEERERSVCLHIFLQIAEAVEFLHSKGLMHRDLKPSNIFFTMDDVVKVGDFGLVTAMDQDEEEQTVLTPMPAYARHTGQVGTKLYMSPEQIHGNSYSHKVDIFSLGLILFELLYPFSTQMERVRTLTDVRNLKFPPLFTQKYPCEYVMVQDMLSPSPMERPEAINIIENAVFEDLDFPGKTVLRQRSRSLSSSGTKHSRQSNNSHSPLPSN
# [7] = target: T1, Eukaryotic translation initiation factor 2-alpha kinase 3; test: Counterscreen assay for PERK inhibitors: Dose response cell-based high throughput screening assay to measure inhibition of PERK at 6 hours. [Related pubchem assays: 1522, 1416 ]; assay type: functional
# [8] = target: T2, Corticotropin-releasing factor receptor 2/Corticotropin-releasing factor-binding protein (Homo sapiens, UniProt P24387+Q13324); test: Dose Response confirmation of uHTS hits for small molecule antagonists of the CRF-binding protein and CRF-R2 receptor complex.; assay type: functional; settings: read-out: IC50_Mean
# T2 sequence (Q13324 whole entry): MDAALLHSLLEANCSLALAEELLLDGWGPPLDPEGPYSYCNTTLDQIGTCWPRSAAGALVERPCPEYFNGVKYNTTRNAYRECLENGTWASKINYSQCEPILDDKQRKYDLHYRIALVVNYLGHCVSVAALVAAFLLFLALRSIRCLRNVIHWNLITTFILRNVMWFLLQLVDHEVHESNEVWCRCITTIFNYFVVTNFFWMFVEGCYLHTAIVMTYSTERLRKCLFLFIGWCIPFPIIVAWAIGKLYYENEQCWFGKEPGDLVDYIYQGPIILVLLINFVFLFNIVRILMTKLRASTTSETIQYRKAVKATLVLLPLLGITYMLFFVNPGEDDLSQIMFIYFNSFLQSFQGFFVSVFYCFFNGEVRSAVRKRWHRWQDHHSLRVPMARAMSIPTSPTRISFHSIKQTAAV
# T2 sequence (P24387 whole entry): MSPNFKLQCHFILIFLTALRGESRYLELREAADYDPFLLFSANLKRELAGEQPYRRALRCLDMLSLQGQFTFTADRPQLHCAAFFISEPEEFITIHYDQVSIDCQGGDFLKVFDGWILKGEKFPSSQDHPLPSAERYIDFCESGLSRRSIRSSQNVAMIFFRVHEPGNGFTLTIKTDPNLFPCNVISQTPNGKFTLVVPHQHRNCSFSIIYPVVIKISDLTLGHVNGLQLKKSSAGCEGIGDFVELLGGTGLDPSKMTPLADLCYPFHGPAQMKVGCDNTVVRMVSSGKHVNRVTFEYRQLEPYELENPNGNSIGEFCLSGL
# [9] = target: T2, Corticotropin-releasing factor receptor 2/Corticotropin-releasing factor-binding protein; test: activators of CRF receptor 2 with binding protein – uHTS hits, confirmation (AID 602473); assay type: functional; settings: read-out: EC50_Mean
# [10] = target: Melanin-concentrating hormone receptor 1 (Homo sapiens, UniProt Q99705); test: Late-stage fluorescence-based counterscreen for antagonists of the G-protein coupled receptor 7 (GPR7): cell-based dose response assay to identify antagonists of the melanin-concentrating hormone receptor 1 (MCHR1). [Related pubchem assays (depositor defined):AID1861, AID1880, AID1952, AID2148, AID2251, AID2257, AID485339]; assay type: functional;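 note: stimulated with 30 nM MCH peptide agonist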
# Melanin-concentrating hormone receptor 1, sequence (Q99705 whole entry): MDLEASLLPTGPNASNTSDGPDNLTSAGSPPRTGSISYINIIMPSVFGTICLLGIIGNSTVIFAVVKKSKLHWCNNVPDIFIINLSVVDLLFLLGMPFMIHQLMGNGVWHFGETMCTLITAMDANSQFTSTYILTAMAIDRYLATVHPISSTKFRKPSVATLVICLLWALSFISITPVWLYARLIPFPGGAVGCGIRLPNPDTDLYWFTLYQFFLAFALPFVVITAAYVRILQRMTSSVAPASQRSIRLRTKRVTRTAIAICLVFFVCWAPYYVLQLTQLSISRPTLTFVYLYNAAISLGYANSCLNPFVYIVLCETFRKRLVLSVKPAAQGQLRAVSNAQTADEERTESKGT
# [11] = target: G2/mitotic-specific cyclin-B1 (Homo sapiens, UniProt P14635); test: Counterscreen assay for inhibitors of Wee1 degradation: dose response cell-based assay to identify inhibitors of cyclin B degradation. [Related pubchem assays: 1410, 1321 ]; assay type: functional
# G2/mitotic-specific cyclin-B1, sequence (P14635 whole entry): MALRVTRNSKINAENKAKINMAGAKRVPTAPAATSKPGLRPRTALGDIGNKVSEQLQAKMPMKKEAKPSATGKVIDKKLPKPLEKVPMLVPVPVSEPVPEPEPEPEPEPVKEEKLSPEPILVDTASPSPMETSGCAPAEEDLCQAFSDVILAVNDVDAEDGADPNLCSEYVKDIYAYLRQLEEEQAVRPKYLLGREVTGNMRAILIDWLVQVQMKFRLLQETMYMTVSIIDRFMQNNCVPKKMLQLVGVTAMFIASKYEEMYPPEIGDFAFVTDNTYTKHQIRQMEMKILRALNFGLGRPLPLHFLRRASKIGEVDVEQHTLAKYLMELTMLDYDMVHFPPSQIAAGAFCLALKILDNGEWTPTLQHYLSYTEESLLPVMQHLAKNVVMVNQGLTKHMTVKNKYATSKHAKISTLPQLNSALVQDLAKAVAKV
# Wee1-like protein kinase = Wee1-like protein kinase (Homo sapiens, UniProt P30291); test: Dose Response Cell-based Assay for Inhibitors of Wee1 Degradation. [Related pubchem assays: 1410, 1321 ]; assay type: functional
# Wee1-like protein kinase, sequence (P30291 whole entry): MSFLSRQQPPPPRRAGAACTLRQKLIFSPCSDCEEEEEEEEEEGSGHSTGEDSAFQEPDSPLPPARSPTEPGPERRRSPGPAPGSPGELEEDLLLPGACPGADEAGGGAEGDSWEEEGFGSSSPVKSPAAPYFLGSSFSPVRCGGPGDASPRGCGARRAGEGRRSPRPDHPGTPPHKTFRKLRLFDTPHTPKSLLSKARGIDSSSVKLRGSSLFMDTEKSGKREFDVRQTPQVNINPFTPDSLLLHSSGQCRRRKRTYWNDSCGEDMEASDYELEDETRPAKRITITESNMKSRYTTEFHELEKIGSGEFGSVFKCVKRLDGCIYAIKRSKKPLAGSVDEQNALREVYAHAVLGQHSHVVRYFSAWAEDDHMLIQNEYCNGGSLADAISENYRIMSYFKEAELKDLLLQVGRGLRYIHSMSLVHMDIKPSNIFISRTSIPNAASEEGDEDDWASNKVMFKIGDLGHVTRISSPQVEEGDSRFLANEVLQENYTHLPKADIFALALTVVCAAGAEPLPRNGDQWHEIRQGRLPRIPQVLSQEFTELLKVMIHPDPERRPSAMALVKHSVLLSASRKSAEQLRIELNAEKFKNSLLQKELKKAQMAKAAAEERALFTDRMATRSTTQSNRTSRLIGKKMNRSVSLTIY
# [12] = Vero cell cytotoxicity, dose response, cytotoxicity control for Vif-APOBEC3G degradation inhibitor project, Vero cells (AID 1117358); assay type: functional; settings: Human immunodeficiency virus 1, Vero
smiles,measurement,setting,value
COc1cc(NC(=O)c2cccc3c2C(=O)N(Cc2cccnc2)C3)cc(OC)c1OC,EC50,HEK293 [1],0.744 µM (active)
same,EC50,[2],> 8 µM (not active)
same,EC50,HEK293 [3],13.9 µM (not active)
same,EC50,HEK293 [4],> 8 µM (inactive)
same,EC50,HEK293 [5],> 8 µM (not active)
C=CCN(c1ccccc1)S(=O)(=O)c1cccc(C(=O)O)c1,EC50,[6],> 55.7 µM (not active)
same,EC50,[7],> 55.7 µM (not active)
same,IC50,[8],> 47.1 µM (inactive)
same,EC50,[9],> 53 µM (inactive)
CCOC(=O)c1ccc(-n2ncc(Cl)c(Oc3ccc(OC)cc3)c2=O)cc1,IC50,[10],4 µM (active)
COc1ccc(/C=N/NC(=O)c2ccc3ccccc3c2)cc1OS(=O)(=O)c1ccc(NC(C)=O)cc1,EC50,[11],> 49.7 µM (not active)
same,EC50,Wee1-like protein kinase,> 49.7 µM (not active)
same,CC50,[12],> 40 µM (active)
